From US20030109675A1 (priority 2001, published 2003)
Where “and” joins values, the source holds several entries; their conditions need not be identical. Equal values may be shown once.

Experiments:
[1] = target: T1, DegP (Escherichia coli, UniProt P0C0V0); conditions: 7-mer and 12-mer Abz-tagged cellulose-bound peptides, 0.28 mg/ml DegP, 5 mM MgCl2, up to 28 hours
[2] = target: T1, DegP; conditions: for cleavage of fluorescence-quench peptide by DegP: 8 μM (SPCJ-12) or 10 μM peptide, 25 mM HEPES, 5 mM CaCl2, 45° C.
[3] = target: T1, DegP; conditions: cited from earlier work
[4] = target: T1, DegP; conditions: scaled-up (5 ml) cleavage reaction, MALDI-TOF MS of products
[5] = target: DegP protease (Escherichia coli, UniProt P0C0V0); conditions: for effect of divalent cation on DegP cleavage of PapA-6H4A-rcm: 5 mM
[6] = target: SPCJ-14 - Abz-[…]-DAP(Dnp)-NH2

With HYTAVVK the “cleavage of PapA library peptide by DegP in solid-phase scan” value (from here on “cleavage of PapA library peptide by DegP”) [1] was “cleaved by DegP”.

In the case of NGHSDEL, the “cleavage of PapA library peptide by DegP” value [1] is reported as “cleaved by DegP”.

In the case of Abz-HYTASSK-DAP(Dnp)-NH2 [SPCJ-14], the “cleavage of fluorescence-quench peptide by DegP” value ([2]; 5 μg DegP) is reported as “lack of cleavage” and the “inhibition of DegP cleavage of SPCJ-13” value ([2]; 10-fold molar excess (100 μM vs 10 μM SPCJ-13), 30 minutes pre-incubation with 5 μg DegP, then 60 minutes) is reported as “blocked cleavage of SPCJ-13”.

For `O=S(=O)(F)Cc1ccccc1` [phenylmethylsulfonylfluoride], the “inhibition of DegP activity” value [3] is listed as “not inhibited”.

With HYTAVVKKSSAV the “cleavage of PapA library peptide by DegP” value [1] was “cleaved by DegP”.

For FTGPIVNGHSDE, the “cleavage of PapA library peptide by DegP” value [1] was “cleaved by DegP”.

With Abz-HYTAVVKKSSAV-DAP(Dnp)-NH2 [SPCJ-12] the “DegP cleavage site in substrate peptide” value [4] was “cleaved between the paired valine residues” and the “cleavage of fluorescence-quench peptide by DegP” value ([2]; 5 μg DegP) was “cleaved SPCJ-12 in a time-dependent fashion”.

For KLAFTGPIVNGH, the “cleavage of PapA library peptide by DegP” value [1] was “cleaved by DegP”.

In the case of DGENVLH, the “cleavage of PapA library peptide by DegP” value [1] is reported as “cleaved by DegP”.

With ELVNCDI the “cleavage of PapA library peptide by DegP” value [1] was “cleaved by DegP”.

For `[Cl-].[Cl-].[Mg+2]` [MgCl2, reference compound], the “input PapA-6H4A-rcm cleaved by DegP in presence of divalent cation” value ([5]; 5 mM cation, 20 μg DegP, 20 μg substrate, 4 hours at 45° C.) was ~50%.

With NVLHYTA the “cleavage of PapA library peptide by DegP” value [1] was “cleaved by DegP”.

With TLKDGENVLHYT the “cleavage of PapA library peptide by DegP” value [1] was “cleaved by DegP”.

In the case of `[Cl][Mn][Cl]` [MnCl2, reference compound], the “effect of divalent cation on DegP cleavage of PapA-6H4A-rcm” value [5] is reported as “stimulated DegP cleavage”.

For `[Ca+2].[Cl-].[Cl-]` [CaCl2, reference compound], the “effect of divalent cation on DegP cleavage of PapA-6H4A-rcm” value [5] was “stimulated DegP cleavage”.

In the case of LDIELVNCDITA, the “cleavage of PapA library peptide by DegP” value [1] is reported as “cleaved by DegP”.

In the case of Abz-HYTAVVK-DAP(Dnp)-NH2 [SPCJ-13], the “DegP cleavage site in substrate peptide” value [4] is reported as “cleavage between the paired valine residues” and the “cleavage of fluorescence-quench peptide by DegP” value ([2]; 5 μg DegP) is reported as “cleaved SPCJ-13 in a time-dependent fashion”.

For KSMCMKLSFS [SPCJ-1], the “effect of peptide on DegP cleavage of SPCJ-13” value ([2]; 200 μM peptide added at onset of incubation, 5 μg DegP) was “enhanced cleavage of SPCJ-13”, the “PapA-6H4A-rcm cleaved by DegP in presence of activating peptide, 60 minutes” value ([5]; 200 μM peptide, 5 μg DegP, 40 μg substrate, 5 mM MgCl2, 45° C., 60 minutes) was 50% and > 50% and the “PapA-6H4A-rcm cleaved by DegP in presence of activating peptide, four hours” value ([5]; 200 μM peptide, 5 μg DegP, 40 μg substrate, 5 mM MgCl2, 45° C., four hours) was ~90%.

B1: DegP protease (protein)
chain: AETSSATTAQQMPSLAPMLEKVMPSVVSINVEGSTTVNTPRMPRNFQQFFGDDSPFCQEGSPFQSSPFCQGGQGGNGGGQQQKFMALGSGVIIDADKGYVVTNNHVVDNATVIKVQLSDGRKFDAKMVGKDPRSDIALIQIQNPKNLTAIKMADSDALRVGDYTVAIGNPFGLGETVTSGIVSALGRSGLNAENYENFIQTDAAINRGNSGGALVNLNGELIGINTAILAPDGGNIGIGFAIPSNMVKNLTSQMVEYGQVKRGELGIMGTELNSELAKAMKVDAQRGAFVSQVLPNSSAAKAGIKAGDVITSLNGKPISSFAALRAQVGTMPVGSKLTLGLLRDGKQVNVNLELQQSSQNQVDSSSIFNGIEGAEMSNKGKDQGVVVNNVKTGTPAAQIGLKKGDVIIGANQQAVKNIAELRKVLDSKPSVLALNIQRGDSTIYLLMQ
With B1 the “cleavage in the fluorescent-quench peptide assay” value [6] was “SPCJ-14 was not cleaved”.
